15 compounds from US20140073700A1, “[…] ACID DERIVATIVES AND METHODS OF USE THEREOF” (AbbVie Inc., priority 2012, published 2014) can be followed below.

SMILES strings stand for the structures.

This assay has as its system IFNγ-Induced NO Production in RAW 264.7 cells. Briefly: Nitric Oxide Suppression Assay (suppression of IFNγ-induced NO production). It counts as cell-based. The following applies: RAW264.7; RAW 264.7 mouse macrophage cells, 20 ng/mL interferon gamma, Griess detection; single curve fit to mean data of n=2-3. On the procedure: RAW 264.7, a mouse macrophage cell line, was obtained from American Type Culture Collection (Manassas Va.) and maintained in the log phase of growth in Dulbecco's Modified Eagle's Medium (DMEM), 10% heat inactivated fetal calf serum and 100 units/mL antibiotic-antimycotic (AA). Cells were cultured and maintained in a humidified incubator at 37° C. under 5% CO2 and 95% air. Cells were sub-cultured every 3 days by scraping and were not used beyond passage 20. All cell culture supplies were obtained from Life Technologies (Grand Island, N.Y.).
RAW 264.7 cells were plated 1 day in advance of experiment at a concentration of 80,000 cells/well onto CellBIND® 96 well plates (Corning, N.Y.) in a total volume of 100 μL. The next day, pre-treat cells with compounds (from 3 μM to 0.3 nM serially diluted in a 10 point curve) from a 10× stock by adding 10 μL per well in complete DMEM media containing 10% fetal calf serum. The plates were centrifuged for 3 minutes at 400×g at room temperature followed by 2 hour incubation at 37° C. The cells were then incubated overnight at 37° C. with 10 μL of the insult, interferon gamma (R&D Systems, Minneapolis, Minn.), from a 10× stock for a final concentration of 20 ng/mL. The plates were centrifuged for 3 minutes at 400×g at room temperature followed by 18 hour incubation at 37° C. The following day, transfer 50 μL cell culture supernatant from each well into a clear bottom 96 well plate and follow the instructions from Promega's Griess Detection Kit #G2930 (Madison, Wis.) which involves the addition of 50 μL of the provided sulfanilamide solution for a 5-10 minute incubation at room temperature. Next add 50 μL of the provided N-1-napthylethylenediamine dihydrochloride (NED) solution for a 5-10 minute incubation at room temperature and protected from light. If any air bubbles were introduced into the well, the plates need to be centrifuged for 5 minutes at 400×g at room temperature to avoid interference with absorbance readings. The plates were read for absorbance within 30 minutes with a filter between 520 nm and 550 nm.
For the ability of compounds to suppress the increase in nitric oxide release, the percent maximal intensity of nitric oxide detected in each well was normalized to that induced by the peak value for 20 ng/mL of interferon gamma alone and plotted against the compound concentration to calculate IC50 values and to control for plate-to-plate variability. Concentration-response data were analyzed using GraphPad Prism (San Diego, Calif.); the IC50 values were derived from a single curve fit to the mean data of n=2-3, in duplicates.
All compounds were dissolved in dimethyl sulfoxide at 10 mM stock solutions and tested at a concentration that the dimethyl sulfoxide levels never exceeded 1%.
In general terms: Nitrite, measured by Griess reagent, commonly stands in for NO production.
One may read the IC50 as the point on the concentration scale where inhibition reaches its midpoint. Read a high IC50 as weaker potency in that assay. On to `COCCN(C)C(=O)[C@@]1(C)CC[C@]2(C)CC[C@@]3(C)[C@]4(C)CC[C@H]5C(C)(C)C(=O)C(C#N)=C[C@]5(C)C4=CC(=O)[C@]3(O)[C@@H]2C1` [Example 28, (2S,4aS,6aS,6bR,8aR,12aS,14aS,14bR)-11-cyano-14a-hydroxy-N-(2-methoxyethyl)-N,2,4a,6a,6b,9,9,12a-octamethyl-10,14-dioxo-1,2,3,4,4a,5,6,6a,6b,7,8,8a,9,10,12a,14,14a,14b-octadecahydropicene-2-carboxamide], for which the IC50 was determined as 17.4 nM. Compound `COCCNC(=O)[C@@]1(C)CC[C@]2(C)CC[C@]3(C)[C@H](C(=O)C=C4[C@@]5(C)C=C(C#N)C(=O)C(C)(C)[C@@H]5CC[C@]43C)[C@@H]2C1` [Example 34, (2S,4aS,6aR,6bS,8aR,12aS,14aR,14bS)-11-cyano-N-(2-methoxyethyl)-2,4a,6a,6b,9,9,12a-heptamethyl-10,14-dioxo-1,2,3,4,4a,5,6,6a,6b,7,8,8a,9,10,12a,14,14a,14b-octadecahydropicene-2-carboxamide] gave a half-inhibitory concentration (IC50) of 3 nM. Compared with the last compound, the IC50 is about 5.8-fold lower.

With `Cn1ccc(CNC(=O)[C@@]2(C)CC[C@]3(C)CC[C@@]4(C)[C@]5(C)CC[C@H]6C(C)(C)C(=O)C(C#N)=C[C@]6(C)C5=CC(=O)[C@]4(O)[C@@H]3C2)n1` [Example 12, (2S,4aS,6aS,6bR,8aR,12aS,14aS,14bR)-11-cyano-14a-hydroxy-2,4a,6a,6b,9,9,12a-heptamethyl-N-[(1-methyl-1H-pyrazol-3-yl)methyl]-10,14-dioxo-1,2,3,4,4a,5,6,6a,6b,7,8,8a,9,10,12a,14,14a,14b-octadecahydropicene-2-carboxamide], the IC50 is 14.1 nM. Compared with the last compound, the IC50 is about 4.7-fold higher. The compound `CC1(C)C(=O)C(C#N)=C[C@]2(C)C3=CC(=O)[C@]4(O)[C@@H]5C[C@@](C)(C(=O)NC6CCOCC6)CC[C@]5(C)CC[C@@]4(C)[C@]3(C)CC[C@@H]12` [Example 18, (2S,4aS,6aS,6bR,8aR,12aS,14aS,14bR)-11-cyano-14a-hydroxy-2,4a,6a,6b,9,9,12a-heptamethyl-10,14-dioxo-N-(tetrahydro-2H-pyran-4-yl)-1,2,3,4,4a,5,6,6a,6b,7,8,8a,9,10,12a,14,14a,14b-octadecahydropicene-2-carboxamide] returned a half-inhibitory concentration (IC50) of 17.1 nM. Consider `CCCNC(=O)[C@@]1(C)CC[C@]2(C)CC[C@@]3(C)[C@]4(C)CC[C@H]5C(C)(C)C(=O)C(C#N)=C[C@]5(C)C4=CC(=O)[C@]3(O)[C@@H]2C1` [Example 25, (2S,4aS,6aS,6bR,8aR,12aS,14aS,14bR)-11-cyano-14a-hydroxy-2,4a,6a,6b,9,9,12a-heptamethyl-10,14-dioxo-N-propyl-1,2,3,4,4a,5,6,6a,6b,7,8,8a,9,10,12a,14,14a,14b-octadecahydropicene-2-carboxamide], for which the half-inhibitory concentration (IC50) is 7.8 nM. Next, `CC1(C)C(=O)C(C#N)=C[C@]2(C)C3=CC(=O)[C@]4(O)[C@@H]5C[C@@](C)(C(=O)NCCN6CCOCC6)CC[C@]5(C)CC[C@@]4(C)[C@]3(C)CC[C@@H]12` [Example 10, (2S,4aS,6aS,6bR,8aR,12aS,14aS,14bR)-11-cyano-14a-hydroxy-2,4a,6a,6b,9,9,12a-heptamethyl-N-[2-(morpholin-4-yl)ethyl]-10,14-dioxo-1,2,3,4,4a,5,6,6a,6b,7,8,8a,9,10,12a,14,14a,14b-octadecahydropicene-2-carboxamide]: 23.9 nM; `CCC(O)CNC(=O)[C@@]1(C)CC[C@]2(C)CC[C@@]3(C)[C@]4(C)CC[C@H]5C(C)(C)C(=O)C(C#N)=C[C@]5(C)C4=CC(=O)[C@]3(O)[C@@H]2C1` (stereo partly drawn) [Example 14, (2S,4aS,6aS,6bR,8aR,12aS,14aS,14bR)-11-cyano-14a-hydroxy-N-(2-hydroxybutyl)-2,4a,6a,6b,9,9,12a-heptamethyl-10,14-dioxo-1,2,3,4,4a,5,6,6a,6b,7,8,8a,9,10,12a,14,14a,14b-octadecahydropicene-2-carboxamide]: 53.7 nM. Next, `COc1ccccc1CNC(=O)[C@@]1(C)CC[C@]2(C)CC[C@@]3(C)[C@]4(C)CC[C@H]5C(C)(C)C(=O)C(C#N)=C[C@]5(C)C4=CC(=O)[C@]3(O)[C@@H]2C1` [Example 13, (2S,4aS,6aS,6bR,8aR,12aS,14aS,14bR)-11-cyano-14a-hydroxy-N-(2-methoxybenzyl)-2,4a,6a,6b,9,9,12a-heptamethyl-10,14-dioxo-1,2,3,4,4a,5,6,6a,6b,7,8,8a,9,10,12a,14,14a,14b-octadecahydropicene-2-carboxamide]: 60.7 nM; `CC(C)CCNC(=O)[C@@]1(C)CC[C@]2(C)CC[C@@]3(C)[C@]4(C)CC[C@H]5C(C)(C)C(=O)C(C#N)=C[C@]5(C)C4=CC(=O)[C@]3(O)[C@@H]2C1` [Example 17, (2S,4aS,6aS,6bR,8aR,12aS,14aS,14bR)-11-cyano-14a-hydroxy-2,4a,6a,6b,9,9,12a-heptamethyl-N-(3-methylbutyl)-10,14-dioxo-1,2,3,4,4a,5,6,6a,6b,7,8,8a,9,10,12a,14,14a,14b-octadecahydropicene-2-carboxamide]: 24 nM; `CC1(C)C(=O)C(C#N)=C[C@]2(C)C3=CC(=O)[C@]4(O)[C@@H]5C[C@@](C)(C(=O)N6CCCC6)CC[C@]5(C)CC[C@@]4(C)[C@]3(C)CC[C@@H]12` [Example 31, (4aR,6aR,6bS,8aS,11S,12aR,12bS,14bS)-12b-hydroxy-4,4,6a,6b,8a,11,14b-heptamethyl-3,13-dioxo-11-(pyrrolidin-1-ylcarbonyl)-3,4,4a,5,6,6a,6b,7,8,8a,9,10,11,12,12a,12b,13,14b-octadecahydropicene-2-carbonitrile]: 19.3 nM. `CC1(C)C(=O)C(C#N)=C[C@]2(C)C3=CC(=O)[C@]4(O)[C@@H]5C[C@@](C)(C(=O)n6ccnc6)CC[C@]5(C)CC[C@@]4(C)[C@]3(C)CC[C@@H]12` [Example 15, (4aR,6aR,6bS,8aS,11S,12aR,12bS,14bS)-12b-hydroxy-11-(1H-imidazol-1-ylcarbonyl)-4,4,6a,6b,8a,11,14b-heptamethyl-3,13-dioxo-3,4,4a,5,6,6a,6b,7,8,8a,9,10,11,12,12a,12b,13,14b-octadecahydropicene-2-carbonitrile] gave a 50% inhibitory concentration (IC50) of 269 nM. Against the preceding compound, the IC50 is about 14-fold higher.

Turning to `Cn1cc(CNC(=O)[C@@]2(C)CC[C@]3(C)CC[C@]4(C)[C@H](C(=O)C=C5[C@@]6(C)C=C(C#N)C(=O)C(C)(C)[C@@H]6CC[C@]54C)[C@@H]3C2)cn1` [Example 38, (2S,4aS,6aR,6bS,8aR,12aS,14aR,14bS)-11-cyano-2,4a,6a,6b,9,9,12a-heptamethyl-N-[(1-methyl-1H-pyrazol-4-yl)methyl]-10,14-dioxo-1,2,3,4,4a,5,6,6a,6b,7,8,8a,9,10,12a,14,14a,14b-octadecahydropicene-2-carboxamide], the IC50 is 6.8 nM. This IC50 lies about 40-fold lower than the previous one.

On to `CCCN(C)C(=O)[C@@]1(C)CC[C@]2(C)CC[C@@]3(C)[C@]4(C)CC[C@H]5C(C)(C)C(=O)C(C#N)=C[C@]5(C)C4=CC(=O)[C@]3(O)[C@@H]2C1` [Example 6, (2S,4aS,6aS,6bR,8aR,12aS,14aS,14bR)-11-cyano-14a-hydroxy-N,2,4a,6a,6b,9,9,12a-octamethyl-10,14-dioxo-N-propyl-1,2,3,4,4a,5,6,6a,6b,7,8,8a,9,10,12a,14,14a,14b-octadecahydropicene-2-carboxamide], for which the half-maximal inhibitory concentration (IC50) was found to be 35.5 nM. As to `COc1ccc(NC(=O)[C@@]2(C)CC[C@]3(C)CC[C@@]4(C)[C@]5(C)CC[C@H]6C(C)(C)C(=O)C(C#N)=C[C@]6(C)C5=CC(=O)[C@]4(O)[C@@H]3C2)cc1` [Example 27, (2S,4aS,6aS,6bR,8aR,12aS,14aS,14bR)-11-cyano-14a-hydroxy-N-(4-methoxyphenyl)-2,4a,6a,6b,9,9,12a-heptamethyl-10,14-dioxo-1,2,3,4,4a,5,6,6a,6b,7,8,8a,9,10,12a,14,14a,14b-octadecahydropicene-2-carboxamide], the half-inhibitory concentration (IC50) came out at 13.6 nM. `C[C@H](NC(=O)[C@@]1(C)CC[C@]2(C)CC[C@@]3(C)[C@]4(C)CC[C@H]5C(C)(C)C(=O)C(C#N)=C[C@]5(C)C4=CC(=O)[C@]3(O)[C@@H]2C1)c1ccccc1` [Example 20, (2S,4aS,6aS,6bR,8aR,12aS,14aS,14bR)-11-cyano-14a-hydroxy-2,4a,6a,6b,9,9,12a-heptamethyl-10,14-dioxo-N-[(1S)-1-phenylethyl]-1,2,3,4,4a,5,6,6a,6b,7,8,8a,9,10,12a,14,14a,14b-octadecahydropicene-2-carboxamide] yielded an IC50 of 38.6 nM.
